Test results from patent publication US10494378B2, “Fused ring pyrimidine compound, intermediate, and preparation method, composition and use thereof” (GUANGZHOU MAXINOVEL PHARMACEUTICALS CO., LTD., priority 2015, dated 2019).

Experiments:
[1] = molecular target: T1, JAK1 kinase (Homo sapiens, UniProt P23458); experiment: IC50 evaluation assay on JAK1 kinase inhibition (Caliper); assay type: biochemical; details: adenosine triphosphate at Km; 1 hour at 28° C.; average of two tests; read-out: IC50 (nM) inhibiting JAK 1 kinase
T1 construct: purchased Carna 08-144
Protocol: (§1) 1. The compound was dissolved in 100% DMSO, diluted into solutions with appropriate concentration gradients with water according to experimental requirement, and added to a 384-well plate.
(§2) 2. JAK2 kinase (Carna, Cat. No. 08-045, Lot. No. 07CBS-1927) and JAK3 kinase (Carna, Cat. No. 08-046, Lot. No. 08CBS-0371) were diluted to the optimum concentration with the following buffer solution: 50 mM HEPES, pH 7.5, 0.0015% Brij-35, 2 mM DTT. JAK1 kinase (Carna, Cat. No. 08-144, Lot. No. 11CBS-0144D) was diluted to the optimum concentration with the following buffer solution: 25 mM HEPES pH 7.5, 0.01% Brij-35, 2 mM DTT, 0.01M Triton. Transfer to the 384-well plate and incubated with the compound for a period of time.
(§3) 3. […] The substrate of JAK1 was diluted to the optimum concentration with the following buffer: 25 mM HEPES, pH 7.5, 0.01% Brij-35, 10 mM MgCl2, 0.01M Triton, adenosine triphosphate at Km. Add to the 384-well plate to initiate there action and react for 1 hour at 28° C.
(§4) 4. 1 Eq. of sulfuric acid solution was added to terminate the reaction, the conversion rate was read with Caliper Reader. The inhibition rate was calculated as the average of two tests.

[2] = molecular target: T2, JAK3 kinase (Homo sapiens, UniProt P52333); experiment: IC50 evaluation assay on JAK3 kinase inhibition (Caliper); assay type: biochemical; details: adenosine triphosphate at Km; 1 hour at 28° C.; average of two tests; read-out: IC50 (nM) inhibiting JAK 3 kinase
T2 construct: purchased Carna 08-046
T2 sequence (P52333 1-1124): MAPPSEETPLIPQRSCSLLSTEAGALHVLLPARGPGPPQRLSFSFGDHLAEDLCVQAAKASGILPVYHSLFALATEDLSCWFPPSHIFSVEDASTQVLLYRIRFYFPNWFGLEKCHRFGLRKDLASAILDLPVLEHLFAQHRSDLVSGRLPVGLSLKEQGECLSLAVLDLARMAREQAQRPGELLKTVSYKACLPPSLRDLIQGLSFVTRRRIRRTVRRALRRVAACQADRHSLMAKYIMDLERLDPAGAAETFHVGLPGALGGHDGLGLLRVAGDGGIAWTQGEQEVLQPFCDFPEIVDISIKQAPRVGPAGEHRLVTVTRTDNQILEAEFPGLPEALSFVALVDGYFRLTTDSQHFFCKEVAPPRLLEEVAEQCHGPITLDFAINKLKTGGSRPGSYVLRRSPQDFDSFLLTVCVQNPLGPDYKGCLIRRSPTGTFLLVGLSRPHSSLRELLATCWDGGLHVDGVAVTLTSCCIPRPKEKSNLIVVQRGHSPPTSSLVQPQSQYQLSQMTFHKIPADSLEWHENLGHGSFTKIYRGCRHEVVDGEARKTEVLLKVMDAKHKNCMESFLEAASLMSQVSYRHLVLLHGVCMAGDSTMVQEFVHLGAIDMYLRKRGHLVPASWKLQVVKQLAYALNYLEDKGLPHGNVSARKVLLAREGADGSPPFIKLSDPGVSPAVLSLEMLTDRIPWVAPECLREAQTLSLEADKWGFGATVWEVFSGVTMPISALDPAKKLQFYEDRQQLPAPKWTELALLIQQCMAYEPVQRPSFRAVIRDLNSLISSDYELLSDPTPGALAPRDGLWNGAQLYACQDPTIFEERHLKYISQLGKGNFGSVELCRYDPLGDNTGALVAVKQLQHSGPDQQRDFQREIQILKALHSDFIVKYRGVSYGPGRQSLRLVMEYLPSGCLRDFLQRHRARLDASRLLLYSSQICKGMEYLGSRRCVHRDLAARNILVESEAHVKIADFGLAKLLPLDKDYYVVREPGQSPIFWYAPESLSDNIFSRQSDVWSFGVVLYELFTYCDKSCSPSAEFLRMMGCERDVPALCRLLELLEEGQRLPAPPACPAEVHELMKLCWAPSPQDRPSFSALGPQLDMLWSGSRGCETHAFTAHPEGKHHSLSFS
Protocol: as §1, §2, §3, §4

T1 sequence (P23458 whole entry): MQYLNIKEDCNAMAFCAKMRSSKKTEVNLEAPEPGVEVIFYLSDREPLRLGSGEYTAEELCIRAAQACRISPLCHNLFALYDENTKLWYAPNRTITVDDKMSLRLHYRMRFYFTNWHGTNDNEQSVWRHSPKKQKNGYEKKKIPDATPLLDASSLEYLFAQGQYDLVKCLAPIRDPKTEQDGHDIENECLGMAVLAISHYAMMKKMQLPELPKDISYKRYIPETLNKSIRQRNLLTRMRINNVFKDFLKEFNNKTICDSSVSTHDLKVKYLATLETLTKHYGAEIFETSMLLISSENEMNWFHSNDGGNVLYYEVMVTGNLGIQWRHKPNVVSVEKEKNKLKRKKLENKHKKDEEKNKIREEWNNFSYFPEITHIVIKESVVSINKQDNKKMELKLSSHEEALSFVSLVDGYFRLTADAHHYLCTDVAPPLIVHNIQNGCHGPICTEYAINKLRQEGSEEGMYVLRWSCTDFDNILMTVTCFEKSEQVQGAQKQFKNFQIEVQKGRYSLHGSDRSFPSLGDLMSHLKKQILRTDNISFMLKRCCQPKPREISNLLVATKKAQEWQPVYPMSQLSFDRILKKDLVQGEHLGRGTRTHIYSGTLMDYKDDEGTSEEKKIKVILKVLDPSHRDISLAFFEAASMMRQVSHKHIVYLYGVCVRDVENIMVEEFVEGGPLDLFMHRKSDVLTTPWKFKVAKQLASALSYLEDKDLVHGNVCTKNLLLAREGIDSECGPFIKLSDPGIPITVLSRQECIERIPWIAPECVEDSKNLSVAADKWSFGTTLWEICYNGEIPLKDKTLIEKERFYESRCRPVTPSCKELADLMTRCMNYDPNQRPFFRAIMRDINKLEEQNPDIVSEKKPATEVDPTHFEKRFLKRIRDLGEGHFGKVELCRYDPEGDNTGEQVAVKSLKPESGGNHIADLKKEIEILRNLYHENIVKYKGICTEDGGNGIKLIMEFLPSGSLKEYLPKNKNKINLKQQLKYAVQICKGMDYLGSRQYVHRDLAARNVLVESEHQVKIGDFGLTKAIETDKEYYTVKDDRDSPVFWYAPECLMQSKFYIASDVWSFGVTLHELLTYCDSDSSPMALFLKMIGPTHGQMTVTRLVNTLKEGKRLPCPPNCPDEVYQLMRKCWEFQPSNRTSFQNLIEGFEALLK

IC50 [1]: 5.6 nM
IC50 [2]: 1.1 nM
Structure (SMILES): COc1cc(F)ccc1-c1c(C)sc2cnc(Nc3cnn(C4CCN(CCO)CC4)c3)nc12 [Compound 34, 2-[4-(4-{[7-(4-fluoro-2-methoxyphenyl)-6-methylthieno[3,2-d]pyrimidinyl-2-yl]amino}-1H-pyrazol-1-yl)-piperidinyl-1-yl]-1-ethanol]
